Laboratory results taken from publication PMC3814675, “Structures of B-Lymphotropic Polyomavirus VP1 in Complex with Oligosaccharide Ligands” (PLoS Pathogens, 2013).

What was measured:
[1] = target: T1, LPyV VP1 (B-lymphotropic polyomavirus, UniProt P04010); assay: X-ray crystal structure (soaked crystals), […] Å; type: binding; conditions: 40 mM ligand soak 45 min, 0.1 M sodium acetate pH 4.8, 0.2 M CaCl2; outer-surface sialic acid cleft between two VP1 monomers; also bound on glycan array as lipid-linked probe
T1 construct: VP1 residues 28-301 (27 N-terminal and 66 C-terminal residues truncated), pET15b, E. coli BL21(DE3); His-tag cut with thrombin for crystals leaving GSHM (tag kept for glycan array); unassembled pentamer
T1 sequence (P04010 29-302): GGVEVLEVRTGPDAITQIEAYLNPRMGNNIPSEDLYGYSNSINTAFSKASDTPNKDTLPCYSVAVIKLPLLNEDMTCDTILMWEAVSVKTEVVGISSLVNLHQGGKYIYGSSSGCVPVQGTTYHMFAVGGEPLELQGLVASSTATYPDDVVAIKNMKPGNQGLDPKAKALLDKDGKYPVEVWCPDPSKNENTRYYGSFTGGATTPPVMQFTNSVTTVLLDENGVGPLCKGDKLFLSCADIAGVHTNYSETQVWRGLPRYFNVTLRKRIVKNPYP

[2] = target: T1, LPyV VP1; assay: X-ray crystal structure (soaked crystals), […] Å; type: binding; conditions: 40 mM ligand soak 10 min, 0.1 M sodium acetate pH 4.8, 0.2 M CaCl2; same cleft as 3SL; also bound on glycan array as lipid-linked probe
[3] = target: the molecule itself; assay: crystal structure; unliganded LPyV VP1 and crystals soaked with 3SL or 3SLN; vapor diffusion against isopropanol, 0.1 M sodium acetate pH 4.8, 0.2 M calcium chloride; two VP1 pentamers in the asymmetric unit

CC(=O)N[C@H]1[C@H]([C@H](O)[C@H](O)CO)O[C@@](O[C@H]2[C@@H](O)[C@@H](CO)O[C@@H](O[C@H]3[C@H](O)[C@@H](O)C(O)O[C@@H]3CO)[C@@H]2O)(C(=O)O)C[C@@H]1O (stereo partly drawn) [3SL, Neu5Ac-α2,3-Gal-β1,4-Glc]
X-ray crystal structure (soaked crystals), 1.48 Å [1]: entry codes 4MBX (unliganded LPyV VP1), 4MBY (complex with 3SL) and 4MBZ (complex with 3SLN)

CC(=O)N[C@H]1[C@H]([C@H](O)[C@H](O)CO)O[C@@](O[C@H]2[C@@H](O)[C@@H](CO)O[C@@H](O[C@H]3[C@H](O)[C@@H](NC(C)=O)C(O)O[C@@H]3CO)[C@@H]2O)(C(=O)O)C[C@@H]1O (stereo partly drawn) [3SLN, Neu5Ac-α2,3-Gal-β1,4-GlcNAc]
X-ray crystal structure (soaked crystals), 1.75 Å [2]: 4MBY (complex with 3SL) and 4MBZ (complex with 3SLN)

B1: B-Lymphotropic Polyomavirus (LPyV) VP1 pentamer, amino acids 28-301 (domain or fragment)
chain: GSHMKGGVEVLEVRTGPDAITQIEAYLNPRMGNNIPSEDLYGYSNSINTAFSKASDTPNKDTLPCYSVAVIKLPLLNEDMTCDTILMWEAVSVKTEVVGISSLVNLHQGGKYIYGSSSGCVPVQGTTYHMFAVGGEPLELQGLVASSTATYPDDVVAIKNMKPGNQGLDPKAKALLDKDGKYPVEVWCPDPSKNENTRYYGSFTGGATTPPVMQFTNSVTTVLLDENGVGPLCKGDKLFLSCADIAGVHTNYSETQVWRGLPRYFNVTLRKRIVKNPY
notes: non-native amino acids left at the N-terminus after thrombin cleavage of the His-tag; Major capsid protein VP1 of B-Lymphotropic Polyomavirus, K38 strain, amino acids 28-301 (truncations of 27 and 66 residues at the N- and C-termini); Cannot assemble into capsids because of the truncations; The form used for crystals had the His-tag cleaved; the glycan array used the His-tagged form (no …)
stoichiometry N [3]: 5
